Assays:
infantile female rabbits = assay: Clauberg test, progestational activity (McPhail values) after oral administration to infantile female rabbits; type: in vivo
Description: For the progestational effect, the McPhail values were determined in the usual Clauberg test after oral administration to infantile female rabbits. The minimum amount required to achieve a positive effect is expressed by the McPhail value of 1.5.

seminal vesicles = assay: antiandrogen test, seminal vesicle weight in testosterone propionate-treated male castrated rats; type: in vivo; details: daily dosage s.c. over 7 days, 0.1 mg testosterone propionate daily s.c., halves organ weight caused by testosterone propionate
Description: The antiandrogenic activity was tested on male castrated rats weighing about 100 g. Starting with 1 week after castration, the test compound was administered in staggered doses subcutaneously over a period of 7 days. Over the same time period, the animals received daily 0.1 mg. of testosterone propionate subcutaneously. On the eighth day, the animals were sacrificed, and the weights of the seminal vesicles were determined. As the ED50, the daily dosage was determined which reduced the organ weight caused solely by testosterone propionate to one-half.

[1] = oral, dose 0.001 mg, infantile female rabbits
[2] = oral, dose 0.003 mg, infantile female rabbits
[3] = oral, dose 0.01 mg, infantile female rabbits

Row | Structure (SMILES) | Clauberg test, comparison with compound B (infantile female rabbits; compared with the conventional compound B) | Progestational Activity, McPhail (infantile female rabbits; [1]) | Progestational Activity, McPhail (infantile female rabbits; [2]) | Progestational Activity, McPhail (infantile female rabbits; [3]) | Antiandrogenic Activity ED50 Seminal Vesicle (seminal vesicles) [mg] | threshold dose (McPhail 1.5) for the progestational activity (infantile female rabbits; oral, infantile female rabbits, minimum amount for positive effect) [mg]
1 | CC(=O)O[C@]1(C(C)=O)CC[C@H]2[C@@H]3C=C(Cl)C4=CC(=O)[C@@H]5C[C@@H]5[C@]4(C)[C@H]3[C@@H](F)C[C@@]21C [A, 17-acetoxy-6-chloro-11β-fluoro-1α,2α -methylene-4,6-pregnadiene-3,20-dione] | superior | 1.1 | 2.0 | 3.4 | 0.3 to 1.0 | 
2 | CC(=O)O[C@]1(C(C)=O)CC[C@H]2[C@@H]3C=C(Cl)C4=CC(=O)[C@@H]5C[C@@H]5[C@]4(C)[C@H]3CC[C@@]21C [B, 17-acetoxy-6-chloro-1α,2α -methylene-4,6-pregnadiene-3,20-dione, reference compound] |  | 1.0 | 1.5 | 2.9 | 0.1 to 0.3 | 0.003

Source: US4073900A, “11β-FLUOROPREGNENES” (Schering Aktiengesellschaft, priority 1975, dated 1978)
